Tests used:
HeLa = assay: MTT cytotoxicity assay, HeLa; format: cell-based; conditions: Homo sapiens, 48 h
Excerpt: (§1) Doxorubicin and sunitinib were used as positive controls for comparison.
(§2) The MTT assay is widely used to measure cell proliferation, cell viability, and cytotoxicity. It is based on reducing MTT dye into formazan crystals by living cells, determining mitochondrial activity.
(§3) 3.4. Biological Screening
(§4) Four cancer celllines; Hepatocellular carcinoma (HepG2), Breast adenocarcinoma (MCF-7), Breast adenocarcinoma […]
(§5) from American Type Culture Collection (ATCC, USA) via Holding company for biological products and vaccines (VACSERA), Cairo, Egypt. Antibiotic solutions and sterilesolutions were purchased from Sigma-Aldrich.
(§6) 3.4.2. Cytotoxicity Assay […]
(§7) dimethylthiazol-2-yl)-2,5-diphenyltetrazolium bromide) assay.[41–43] MTT assay is widely used to measure cell proliferation, cell viability, and cytotoxicity. It is based on reducing MTT dye into formazan crystals by living cells, determining mitochondrial activity.[44] For the assay, cells were seeded in Dulbecco’s modified minimum essential medium (DMEM) at a density of 1.0× 10^4 cells/well in 96-well plates, supplemented with 10% FBS and 5% CO2 at 37 °C for 24 h. To each well, a test compound was added at different concentrations .Each concentration was examined three times. Then the cells were treated with the compounds at 37 °C under 5 % CO2 for 48 h. Following this, MTT dye was added to each well at a final concentration of 0.5 mg/ml. Cells were treated with this tetrazolium dye for 4 h. Next, […]
(§8) dissolved by adding 100 µl dimethyl sulfoxide (DMSO), and the absorbance in each well was recorded at 570 nm in a […]
(§9) Absorbance at 570nm directly correlates with cell viability. IC50 (μM) values were determined using Graph Pad Prism software version 5 (Graph Pad Software Inc, CA). The cells were also treated with Doxorubicin; a standard anticancer drug used as positive control.

MDA-MB-231 = assay: MTT cytotoxicity assay, MDA-MB-231; format: cell-based; conditions: Homo sapiens, 48 h
Method: (§10) The synthesized isatin–quinazoline compounds (6a–d) were assessed for their cytotoxicity against four cancer cell lines, namely, hepatocellular carcinoma HepG2, breast carcinoma MCF-7, breast adenocarcinoma MDA-MB-231, and cervical carcinoma HeLa, using an MTT colorimetric assay. Doxorubicin and sunitinib were used as positive controls for comparison. The antiproliferative activities are expressed as the median growth inhibitory concentration (IC50) in micromolar range and are described in Table 1.
as §2, with “Cytotoxicity of the synthesized compounds 6a–d was assessed by performing a colorimetric MTT (3-(4,5-dimethylthiazol-2-yl)-2,5-diphenyltetrazolium bromide) assay. The” for “The”
as §3
(§11) Four cancer celllines; Hepatocellular carcinoma (HepG2), Breast adenocarcinoma (MCF-7), Breast adenocarcinoma (MDA-MB-231), and Cervical carcinoma (HeLa) and normal fibroblast cell line (WI38) used in this study were obtained from American Type Culture Collection (ATCC, USA) via Holding company for biological products and vaccines (VACSERA), Cairo, Egypt. Antibiotic solutions and sterilesolutions were purchased from Sigma-Aldrich.
(§12) 3.4.2. Cytotoxicity Assay
(§13) Cytotoxicity of the synthesized compounds 6a-d was done by performing a colorimetric MTT ( 3-(4,5-dimethylthiazol-2-yl)-2,5-diphenyltetrazolium bromide) assay.[41–43] MTT assay is widely used to measure cell proliferation, cell viability, and cytotoxicity. It is based on reducing MTT dye into formazan crystals by living cells, determining mitochondrial activity.[44] For the assay, cells were seeded in Dulbecco’s modified minimum essential medium (DMEM) at a density of 1.0× 10^4 cells/well in 96-well plates, supplemented with 10% FBS and 5% CO2 at 37 °C for 24 h. To each well, a test compound was added at different concentrations .Each concentration was examined three times. Then the cells were treated with the compounds at 37 °C under 5 % CO2 for 48 h. Following this, MTT dye was added to each well at a final concentration of 0.5 mg/ml. Cells were treated with this tetrazolium dye for 4 h. Next, purple crystals of formazan were noticed in each well, formed as a metabolic product of MTT. These crystals were dissolved by adding 100 µl dimethyl sulfoxide (DMSO), and the absorbance in each well was recorded at 570 nm in a microplate reader (EXL 800, USA). Absorbance at 570nm directly correlates with cell viability. IC50 (μM) values were determined using Graph Pad Prism software version 5 (Graph Pad Software Inc, CA). The cells were also treated with Doxorubicin; a standard anticancer drug used as positive control.

WI38 = assay: MTT cytotoxicity assay, normal fibroblast WI38; format: cell-based; conditions: Homo sapiens, WI-38, 48 h, normal fibroblast cell line WI38
Excerpt: as §1, §2, §3, §4, §5, §6, §7, §8, §9

HepG2 = assay: MTT cytotoxicity assay, HepG2; format: cell-based; conditions: Homo sapiens, 48 h
Method: as §10
as §2, with “Cytotoxicity of the synthesized compounds 6a–d was assessed by performing a colorimetric MTT (3-(4,5-dimethylthiazol-2-yl)-2,5-diphenyltetrazolium bromide) assay. The” for “The”
as §3, §11, §12, §13

MCF-7 = assay: MTT cytotoxicity assay, MCF-7; format: cell-based; conditions: Homo sapiens, MCF7, 48 h
Excerpt: as §1, §2, §3, §4, §5, §6, §7, §8, §9

HepG2 cells [1] = assay: Annexin V-FITC/PI dual-staining apoptosis assay; format: cell-based; conditions: HepG2, 2.6 μM (IC50), 24 h
Method: Apoptosis can be detected by measuring translocated phosphatidylserine (PS) from the interior to the surface of the cell membrane. Therefore, an annexin V-FITC/PI (fluorescein–isothiocyanate/propidium iodide) dual staining flow cytometric assay was carried out for compound 6c to investigate the mechanism of cell death induced by the assessed compound.
The apoptosis assay was performed with an annexin V-FITC/PI double staining apoptosis detection kit (K101, BioVision Inc., Mountain View, CA, USA) using a flow cytometer. Experimental procedures are described in detail in theSupplementary Information. […]
3.4.4. Annexin V-FITC Dual-Staining Apoptosis Assay
Apoptosis assay was performed with an Annexin V-FITC / PI double staining apoptosis detection kit (K101, BioVision Inc, Mountain View, CA, USA) using a flow cytometer.[47,48] […]
concentration (2.6 μM) for 24 h. After treatment, the cells were collected, washed two times with PBS, and resuspended in 500 µL binding buffer. Next, annexin V-FITC (5 µL ) and propidium iodide (PI) 5 µL were intruduced to the suspension and the cells were left in the dark for 15 min at room temperature. Samples were then recorded by Epics XL-MCL™ flow cytometer (Beckman- Coulter, USA) and Flowing software (Turku Centre for Biotechnology, University of Turku, Turku, Finland).

Bax = assay: RT-qPCR gene expression analysis, Bax; format: cell-based; conditions: HepG2, RT-qPCR, fold vs untreated = 1
Excerpt: (§14) One significant anticancer mechanism is apoptosis. Drugs that induce apoptosis cause simultaneous or subsequent activation of death receptor systems, mitochondrial dysfunction, and caspase proteolytic processing. Thus, the cell death pathway may occur in several locations. In this study, the alteration in Bax, Bcl-2, and caspase-3 and 9 gene expression following the stimulation of apoptosis by 6c in HepG2 cells using the RT-qPCR method and staurosporine as a positive control is reported in Table 4.
(§15) 3.4.5. Gene Expression Analysis
(§16) After the RNA extraction,
(§17) reverse transcriptase enzyme.
(§18) The amplification reactions
(§19) The data were analyzed using a […]

Bcl-2 = assay: RT-qPCR gene expression analysis, Bcl-2; format: cell-based; conditions: HepG2, RT-qPCR, fold vs untreated = 1
Excerpt: as §14, §15, §16, §17, §18, §19

CDK2 = target: T1, CDK2 (Homo sapiens, UniProt P24941); assay: In vitro CDK2 kinase inhibitory assay (BPS kit, Kinase-Glo); format: biochemical; conditions: 40 min at 30 °C
T1 construct: purchased BPS Biosciences, San Diego, CA, USA

EGFR = EGFR (Homo sapiens, UniProt P00533); assay: In vitro EGFR kinase inhibitory assay (BPS kit, Kinase-Glo)
EGFR, sequence (P00533 25-1210): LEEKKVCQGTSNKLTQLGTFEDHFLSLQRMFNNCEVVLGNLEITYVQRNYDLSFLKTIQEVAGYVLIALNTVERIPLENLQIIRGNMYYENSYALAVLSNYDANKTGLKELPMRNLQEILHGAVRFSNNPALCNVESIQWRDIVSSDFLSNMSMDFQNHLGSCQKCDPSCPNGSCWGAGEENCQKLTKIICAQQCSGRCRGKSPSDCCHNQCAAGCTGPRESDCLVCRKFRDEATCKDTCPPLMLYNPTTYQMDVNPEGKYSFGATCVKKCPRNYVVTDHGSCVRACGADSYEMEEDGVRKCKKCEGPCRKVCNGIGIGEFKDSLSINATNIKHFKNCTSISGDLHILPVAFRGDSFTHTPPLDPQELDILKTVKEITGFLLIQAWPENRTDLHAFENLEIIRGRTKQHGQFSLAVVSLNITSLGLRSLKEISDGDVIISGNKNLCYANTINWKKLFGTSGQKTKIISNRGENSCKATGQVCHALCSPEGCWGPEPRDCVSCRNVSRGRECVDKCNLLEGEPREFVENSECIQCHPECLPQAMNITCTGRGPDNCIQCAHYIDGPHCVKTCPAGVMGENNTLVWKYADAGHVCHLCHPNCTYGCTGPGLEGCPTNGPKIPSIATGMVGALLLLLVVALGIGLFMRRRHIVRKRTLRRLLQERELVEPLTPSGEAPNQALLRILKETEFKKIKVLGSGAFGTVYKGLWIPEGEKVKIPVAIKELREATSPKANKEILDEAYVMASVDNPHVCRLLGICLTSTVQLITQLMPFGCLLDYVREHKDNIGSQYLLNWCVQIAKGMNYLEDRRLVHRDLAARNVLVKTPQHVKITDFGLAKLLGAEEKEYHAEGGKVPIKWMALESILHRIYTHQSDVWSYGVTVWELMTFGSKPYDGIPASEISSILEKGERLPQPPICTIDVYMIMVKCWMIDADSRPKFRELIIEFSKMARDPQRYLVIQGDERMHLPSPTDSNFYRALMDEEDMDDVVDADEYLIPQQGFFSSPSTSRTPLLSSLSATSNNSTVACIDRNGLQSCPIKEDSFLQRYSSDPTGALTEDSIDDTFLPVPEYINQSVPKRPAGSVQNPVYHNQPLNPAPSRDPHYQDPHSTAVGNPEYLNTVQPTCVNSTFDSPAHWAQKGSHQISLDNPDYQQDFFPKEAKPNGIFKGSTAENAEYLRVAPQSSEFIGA
Method: (§20) In vitro CDK2, EGFR, VEGFR -2, and HER2 Inhibitory Assays
(§21) using CDK2, EGFR, VEGFR -2, and HER2 Kinase Assay Kit (BPS Biosciences, San Diego, CA).[50] At first, CDK2, EGFR,
(§22) initi-ate the catalytic function of the enzymes. Detection reagent (Kinase-Glo® Max reagent) was the added to stop
(§23) the reaction, followed by incubation at room temperature for 15 min. Then the IC50 values were calculated by
(§24) measuring luminescence signal at 450 nm using a plate reader (Tecan Spark® 10M, Männedorf, Switzerland). All
(§25) assays were carried out based on protocol from manufacture. All samples and controls were tested in duplicate.

VEGFR-2 = target: T2, VEGFR-2 (Homo sapiens, UniProt P35968); assay: In vitro VEGFR-2 kinase inhibitory assay (BPS kit, Kinase-Glo); format: biochemical; conditions: 40 min at 30 °C
T2 construct: purchased BPS Biosciences, San Diego, CA, USA
T2 sequence (P35968 20-1356): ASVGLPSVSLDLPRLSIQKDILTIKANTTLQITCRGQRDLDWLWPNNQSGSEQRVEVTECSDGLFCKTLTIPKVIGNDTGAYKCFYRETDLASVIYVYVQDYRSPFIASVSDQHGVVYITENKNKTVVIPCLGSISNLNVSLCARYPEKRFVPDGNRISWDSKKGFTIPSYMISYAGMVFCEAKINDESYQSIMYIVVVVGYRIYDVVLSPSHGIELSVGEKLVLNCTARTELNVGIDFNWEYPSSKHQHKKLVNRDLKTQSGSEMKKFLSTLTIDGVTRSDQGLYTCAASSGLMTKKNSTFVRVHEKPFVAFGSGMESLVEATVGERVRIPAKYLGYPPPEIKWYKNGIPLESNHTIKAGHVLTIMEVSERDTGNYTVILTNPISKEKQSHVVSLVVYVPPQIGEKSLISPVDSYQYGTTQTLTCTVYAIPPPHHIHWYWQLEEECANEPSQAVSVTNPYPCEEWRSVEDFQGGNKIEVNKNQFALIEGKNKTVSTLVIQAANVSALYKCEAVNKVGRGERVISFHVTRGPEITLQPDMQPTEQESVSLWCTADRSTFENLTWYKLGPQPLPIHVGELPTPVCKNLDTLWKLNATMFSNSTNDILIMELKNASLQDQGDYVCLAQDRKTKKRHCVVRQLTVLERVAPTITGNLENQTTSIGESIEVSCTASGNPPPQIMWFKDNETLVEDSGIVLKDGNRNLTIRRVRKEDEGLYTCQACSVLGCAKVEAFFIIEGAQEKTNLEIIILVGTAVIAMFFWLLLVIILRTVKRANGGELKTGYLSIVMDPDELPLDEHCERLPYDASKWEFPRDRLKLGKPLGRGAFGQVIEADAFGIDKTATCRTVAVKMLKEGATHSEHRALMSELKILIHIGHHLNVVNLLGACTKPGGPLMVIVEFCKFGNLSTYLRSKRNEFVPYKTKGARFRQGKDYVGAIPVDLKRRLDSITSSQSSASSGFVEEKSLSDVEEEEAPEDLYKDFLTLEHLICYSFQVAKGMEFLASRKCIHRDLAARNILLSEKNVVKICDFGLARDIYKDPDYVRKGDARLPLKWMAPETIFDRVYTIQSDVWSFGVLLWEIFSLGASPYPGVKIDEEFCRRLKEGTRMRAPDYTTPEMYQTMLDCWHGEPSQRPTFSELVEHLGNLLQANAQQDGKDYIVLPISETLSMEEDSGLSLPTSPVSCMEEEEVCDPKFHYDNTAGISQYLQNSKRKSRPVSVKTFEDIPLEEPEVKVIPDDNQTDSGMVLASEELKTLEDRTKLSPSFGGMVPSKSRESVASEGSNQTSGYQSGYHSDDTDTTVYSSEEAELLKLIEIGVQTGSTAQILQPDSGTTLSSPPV

Caspase-3 = assay: RT-qPCR gene expression analysis, caspase-3; format: cell-based; conditions: HepG2, RT-qPCR, fold vs untreated = 1
Excerpt: as §14, §15, §16, §17, §18, §19

Caspase-9 = assay: RT-qPCR gene expression analysis, caspase-9; format: cell-based; conditions: HepG2, RT-qPCR, fold vs untreated = 1
Excerpt: as §14, §15, §16, §17, §18, §19

HER2 = HER2 (Homo sapiens, UniProt P04626); assay: In vitro HER2 kinase inhibitory assay (BPS kit, Kinase-Glo); conditions: read-out: IC50 HER2, 40 min at 30 °C
HER2, sequence (P04626 23-1255): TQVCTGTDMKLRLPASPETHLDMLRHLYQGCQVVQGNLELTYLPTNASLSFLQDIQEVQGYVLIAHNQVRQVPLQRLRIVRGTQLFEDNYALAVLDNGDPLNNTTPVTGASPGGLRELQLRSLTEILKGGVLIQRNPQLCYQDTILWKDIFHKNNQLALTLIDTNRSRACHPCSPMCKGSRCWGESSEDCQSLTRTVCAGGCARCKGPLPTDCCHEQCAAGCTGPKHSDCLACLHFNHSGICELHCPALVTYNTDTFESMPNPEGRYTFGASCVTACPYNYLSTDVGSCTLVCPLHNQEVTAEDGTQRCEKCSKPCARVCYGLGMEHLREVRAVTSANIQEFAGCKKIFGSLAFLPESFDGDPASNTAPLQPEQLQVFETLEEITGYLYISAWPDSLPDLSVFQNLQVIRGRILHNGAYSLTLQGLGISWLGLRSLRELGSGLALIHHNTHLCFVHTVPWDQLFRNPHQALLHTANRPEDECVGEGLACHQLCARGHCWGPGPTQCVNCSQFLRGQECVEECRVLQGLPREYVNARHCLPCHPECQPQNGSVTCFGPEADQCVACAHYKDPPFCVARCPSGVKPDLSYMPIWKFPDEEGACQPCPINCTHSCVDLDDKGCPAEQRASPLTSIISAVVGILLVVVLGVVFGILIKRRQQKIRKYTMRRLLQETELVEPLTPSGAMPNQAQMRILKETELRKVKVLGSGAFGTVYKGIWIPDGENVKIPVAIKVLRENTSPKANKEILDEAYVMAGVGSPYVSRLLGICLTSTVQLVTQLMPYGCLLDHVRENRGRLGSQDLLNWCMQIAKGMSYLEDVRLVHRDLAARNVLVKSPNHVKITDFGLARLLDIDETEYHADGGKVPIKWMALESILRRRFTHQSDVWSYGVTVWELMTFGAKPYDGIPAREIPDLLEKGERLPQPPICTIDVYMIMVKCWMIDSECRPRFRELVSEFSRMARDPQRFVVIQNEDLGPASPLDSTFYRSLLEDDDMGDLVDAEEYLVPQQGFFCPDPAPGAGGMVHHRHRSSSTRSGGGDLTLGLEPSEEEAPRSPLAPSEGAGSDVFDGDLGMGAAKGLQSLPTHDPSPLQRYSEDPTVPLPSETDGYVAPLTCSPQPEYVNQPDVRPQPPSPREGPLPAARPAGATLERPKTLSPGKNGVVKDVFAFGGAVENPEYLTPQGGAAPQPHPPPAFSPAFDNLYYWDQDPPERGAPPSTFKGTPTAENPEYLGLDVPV
Method: as §20, §21, §22, §23, §24, §25

HepG2 cells [2] = assay: Propidium iodide flow cytometry cell cycle analysis; format: cell-based; conditions: HepG2, 2.6 μM, 24 h
Method: Its impacts on cell cycle progression and induction of apoptosis were investigated. The effect of compound 6c on the regulation of the cell cycle progression was studied using a Propidium Iodide Flow Cytometry Kit assay. Alterations in the cell cycle were recorded after the treatment of HepG2 cells with 2.6 μM of compounds 6c, chosen for its excellent antiproliferative activities within 24 h.
Cell cycle arrest and distribution were evaluated using a Propidium Iodide Flow Cytometry Kit (ab139418, Abcam, Cambridge, MA, USA) followed by flow cytometry analysis.
3.4.3. Flow cytometry cell cycle analysis
Cell cycle arrest and distribution were evaluated using the Propidium Iodide Flow Cytometry Kit (ab139418, Abcam) followed by flow cytometry analysis.[45,46] First, HepG2 cells were cultured at a density of 2 × 10^5/well for 24 h in the presence of tested newly synthesized compounds 6c (2.6 μM) (control cells were left untreated and both measurements were done in triplicate). Then, the attached cells were supplemented with trypsin, washed with ice-cold PBS, centrifuged, and fixed using ice -cold 70% ethanol. Next, cells were re -suspended and stored at +4 °C for at least 2 h. After that, cells were incubated with 200 μL 1X Propidium Iodide (PI) + RNase Staining Solution for 30 min at 37 °C in the dark. The DNA content in each cell nucleus was determined by Epics XL -MCL™ flow cytometer (Beckman -Coulter, USA). Finally, cell cycle phase distribution was analyzed using Flowing software 2.5.1 (Turku Centre for Biotechnology, University of Turku, Turku, Finland). […]
University of Turku, Turku, Finland).

| Compound | IC50 (HeLa) [µM] | IC50 (MDA-MB-231) [µM] | IC50 (WI38) [µM] | IC50 (HepG2) [µM] | IC50 (MCF-7) [µM] | other results |
| --- | --- | --- | --- | --- | --- | --- |
| O=C1Nc2ccccc2/C1=N/NC(=O)c1ccc(Nc2ncnc3ccccc23)cc1 [Compound 6a, (Z)-N′-(2-Oxoindolin-3-ylidene)-4-(quinazolin-4-ylamino) benzohydrazide] | 13.1 ± 0.9 | 6.24 ± 0.5 | 34.1 ± 2.6 | 7.98 ± 0.6 | 4.89 ± 0.3 |  |
| O=C1Nc2ccc(Cl)cc2/C1=N/NC(=O)c1ccc(Nc2ncnc3ccccc23)cc1 [Compound 6b, (Z)-N′-(5-Chloro-2-oxoindolin-3-ylidene)-4-(quinazolin-4-ylamino)benzohydrazide] | 66.8 ± 3.4 | 56.3 ± 3.2 | > 100 | 61.4 ± 3.5 | 70.7 ± 3.4 |  |
| O=C1Nc2ccc(F)cc2/C1=N/NC(=O)c1ccc(Nc2ncnc3ccccc23)cc1 [Compound 6c, (Z)-N′-(5-Fluoro-2-oxoindolin-3-ylidene)-4-(quinazolin-4-ylamino)benzohydrazide] | 7.6 ± 0.5 | 5.18 ± 0.4 | 57.3 ± 3.3 | 2.61 ± 0.1 | 3.78 ± 0.2 | Necrosis (HepG2 cells [1]): 2.94; Apoptosis Induction Analysis Early (HepG2 cells [1]; in % (unit assumed)): 28.64; Apoptosis Induction Analysis Late (HepG2 cells [1]; in % (unit assumed)): 11.21; Apoptosis Induction Analysis Total (HepG2 cells [1]; in % (unit assumed)): 42.79; Protein Expression (Normalized to β-Actin) Bax (Bax): 4.585; Protein Expression (Normalized to β-Actin) Bcl-2 (Bcl-2): 0.185; IC50 (CDK2): 0.183 ± 0.01 µM; IC50 (EGFR): 0.083 ± 0.005 µM; IC50 (VEGFR-2): 0.076 ± 0.004 µM; Protein Expression (Normalized to β-Actin) Caspase-3 (Caspase-3): 10.13; Protein Expression (Normalized to β-Actin) Caspase-9 (Caspase-9): 2.795; IC50 (HER2): 0.138 ± 0.07 µM; Cell Cycle Distribution (%) % Sub-G1 (HepG2 cells [2]): 42.79%; Cell Cycle Distribution (%) %G0–G1 (HepG2 cells [2]): 36.47%; Cell Cycle Distribution (%) %G2/M (HepG2 cells [2]): 9.92%; Cell Cycle Distribution (%) %S (HepG2 cells [2]): 53.61% |
| Cc1ccc2c(c1)/C(=N/NC(=O)c1ccc(Nc3ncnc4ccccc34)cc1)C(=O)N2 [Compound 6d, (Z)-N′-(5-Methyl-2-oxoindolin-3-ylidene)-4-(quinazolin-4-ylamino)benzohydrazide] | > 100 | 82.7 ± 4.3 | 65.8 ± 3.8 | 87.4 ± 4.5 | > 100 |  |
| COc1cccc2c1C(=O)c1c(O)c3c(c(O)c1C2=O)C[C@@](O)(C(=O)CO)C[C@@H]3O[C@H]1C[C@H](N)[C@H](O)[C@H](C)O1 [Doxorubicin, reference compound] |  |  |  | 4.5 ± 0.2 |  |  |
| CN[C@@H]1C[C@H]2O[C@@](C)([C@@H]1OC)n1c3ccccc3c3c4c(c5c6ccccc6n2c5c31)C(=O)NC4 [Staurosporine, reference compound] |  |  |  |  |  | Protein Expression (Normalized to β-Actin) Bax (Bax): 6.794; Protein Expression (Normalized to β-Actin) Bcl-2 (Bcl-2): 0.351; Protein Expression (Normalized to β-Actin) Caspase-3 (Caspase-3): 8.43; Protein Expression (Normalized to β-Actin) Caspase-9 (Caspase-9): 4.614 |
| CCN(CC)CCNC(=O)c1c(C)[nH]c(/C=C2\C(=O)Nc3ccc(F)cc32)c1C [Sunitinib, reference compound] | 7.48 ± 0.6 | 8.41 ± 0.7 | 43 ± 2.9 | 6.82 ± 0.5 | 5.19 ± 0.4 |  |

— article PMC12567098, “Multi-Kinase Inhibition by New Quinazoline–Isatin Hybrids: Design, Synthesis, Biological Evaluation and Mechanistic Studies” (Pharmaceuticals, 2025)
